# According to patent publication US9371265B2, “Compositions and methods related to inhibitors of JAK kinase” (EP PHARMA, INC., priority 2012, dated 2016):
# Tested on: p38 MAP kinase
# Test: Phospho-p38 in SU-DHL-1 cells (Luminex multiplex)
# Type: cell-based, human
# Conditions: 24 hours
# Method: FIGS. 8A-8F. Effect of EP009 on ALCL cells is mediated through selective activation of ERK1/2 and JNK1/2 stress signaling pathways, and inhibition of p70 S6 kinase growth signaling pathways. SU-DHL-1 cells were treated with vehicle (PBS) or increasing amounts of EP009 (0-50 μM) for 24 hours. Cells were then lysed, clarified, and subjected to Luminex multiplex analysis to detect phosphorylated (A) ERK1/2, (B) JNK1/2, (C) p70 S6 kinase, (D) IκBα, (E) CREB, and (F) p38. Values represent mean fluorescence intensity (MFI) normalized to corresponding GAPDH MFI, while error bars represent the standard deviation (n=2). Representative data from two independent experiments are shown. Statistical significance was determined using Student's t-test. (*, p<0.05).
# The MILLIPLEX MAP 8-plex Multi-Pathway Signaling Phosphoprotein kit (Millipore) was used to detect phosphorylated ERK1/2 (Thr185/Tyr187), STAT3 (Ser727), JNK1/2 (Thr183/Tyr185), p70 S6 kinase (Thr412), IκBα (Ser32), STAT5A/B (Tyr694/699), CREB (Ser133), and p38 (Thr180/Tyr182). The MILLIPLEX MAP 5-plex STAT Phosphoprotein kit (Millipore) was used to detect phosphorylated STAT1 (Tyr701), STAT2 (Tyr690), STAT3 (Tyr705), STAT5A/B (Tyr694/699), and STAT6 (Tyr641). The MILLIPLEX MAP Human Apoptosis 3-plex kit (Millipore) was used to detect cleaved PARP, cleaved Caspase 3, and total GAPDH for protein normalization.
smiles,measurement,value
"C=C1CCCCCCCCCC(CO)C1=O (stereo not shown) [EP009, 2-(Hydroxymethyl)-12-methylenecyclododecanone]",p38 MAP kinase phosphorylation status,No statistically significant change
